The numbers were not newly measured in patent publication US20210307321A1, “CAPSULE SUSPENSIONS WITH AGROCHEMICAL ACTIVE INGREDIENTS” (priority 2018, published 2021), which cites them from elsewhere.

Regarding `O=C(Nc1ccc(F)cc1F)c1cccnc1Oc1cccc(C(F)(F)F)c1` [Diflufenican, 2′,4′-Difluoro-2-(a,a,a-trifluoro-m-tolyloxy)nicotinanilide], the “solubility in non-water miscible solvents” value is recorded as “very low solubility”.
